In experiment [1] the test system is THP-1 (vitamin D3 differentiated). Kind of experiment: EC50 of beta-agonist gene-signature score cos_weight_AC (signature02). The conditions noted are these: 4 h. How it is done:
(§1)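 Vitamin-D3-differentiated THP-1 cells were treated 4 h with compounds (1:10 serial dilutions, top 100 uM). Two 8-gene QuantiGene Plex signatures were read out as TBP-normalised rscores; the cos_weight_AC signature score (% of 10 uM isoproterenol active control) was fitted by 4PL/nonparametric fit to give EC50, with constant fits assigned one log unit outside the tested range. cAMP EC50s come from a 20 min HTRF assay with IBMX at 37 °C, fitted with the same algorithm.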

For experiment [2] the test system is unchanged. Kind of experiment: EC50 of beta-agonist gene-signature score cos_weight_AC (signature01). The conditions noted are these: 4 h. Here is the method:
as §1

For experiment [3] the test system is unchanged. Kind of experiment: cAMP EC50 (HTRF); higher = lower potency. The conditions noted are these: 20 min. Here is the method:
as §1
A general note: TR-FRET usually uses a lanthanide donor and a delayed reading to cut background.

± gives the standard deviation of the averaged measurements.

The term EC50 denotes the concentration needed to bring the measured effect to its halfway point.

Consider `CC(Cc1ccc(OCC(=O)O)cc1)NCC(O)c1cccc(Cl)c1` (centres undefined), for which the EC50 in experiment [1] was found to be 167 nM; in experiment [2], 421 nM. In addition, the “cAMP EC50” value in experiment [3] was determined as 50.1 ± 31 nM.

Turning to `Cn1cc(C(F)(F)F)nc1-c1ccc(OCC(O)CNCCOc2ccc(O)c(C(N)=O)c2)cc1` (centres undefined), the EC50 in experiment [1] and in experiment [2] was over 100000 nM each time. In addition, the “cAMP EC50” value in experiment [3] is over 100000 nM.

For the compound `O=c1ccc2c([C@@H](O)CNCCCCCCOCC(F)(F)c3ccccc3)ccc(O)c2[nH]1` [Abediterol], the EC50 in experiment [1] and in experiment [2] was under 0.01 nM each time. Moreover, the “cAMP EC50” value in experiment [3] is under 0.01 nM.

In the case of `CNC[C@H](O)c1ccc(O)c(O)c1` [Adrenaline], the EC50 in experiment [1] came to 68.1 nM; in experiment [2], 64.7 nM.

For the compound `COc1cc(NC(=O)CCN2CCC(OC(=O)Nc3ccccc3-c3ccccc3)CC2)c(Cl)cc1CNC[C@H](O)c1ccc(O)c2[nH]c(=O)ccc12` [Batefenterol], the EC50 in experiment [2] was determined as 0.265 nM.

With `CC(CCc1ccc(O)cc1)NCCc1ccc(O)c(O)c1` (centres undefined) [Dobutamine], the EC50 in experiment [2] was 8.15 nM. For the same compound, the “cAMP EC50” value in experiment [3] amounted to 1.38 ± 0.91 nM.

In the case of `Oc1ccc(CCNCCCCCCNCCc2ccccc2)cc1O` [Dopexamine], the “cAMP EC50” value in experiment [3] turned out to be 13900 ± 12000 nM.

Regarding `CC(Cc1ccc(O)cc1)NCC(O)c1cc(O)cc(O)c1` (centres undefined) [Fenoterol], the figures for the EC50 in experiment [1] and in experiment [2] were 3.65 nM and 8.21 nM, respectively. Moreover, in experiment [3], the “cAMP EC50” value came out at 1.75 ± 1.5 nM.

As to `COc1ccc(CC(C)NCC(O)c2ccc(O)c(NC=O)c2)cc1` (centres undefined) [Formoterol], the results for the concentration for a half-maximal effect (EC50) in experiment [1] and in experiment [2] were 0.108 nM and 0.254 nM, respectively. In addition, the “cAMP EC50” value in experiment [3] was determined as 0.0101 nM.

`C=C[C@@]1(C)CC(=O)[C@]2(O)[C@@]3(C)[C@@H](O)CCC(C)(C)[C@@H]3[C@H](O)[C@H](OC(C)=O)[C@@]2(C)O1` [Forskolin]: the EC50 in experiment [1] came to 2310 nM; in experiment [2], 2770 nM.

In the case of `CCC(NC(C)C)C(O)c1ccc(O)c(O)c1` (centres undefined) [Isoetharine], the EC50 in experiment [1] was determined as 48.4 nM; in experiment [2], 32.1 nM.

In the case of `CC(C)NCC(O)c1cc(O)cc(O)c1` (centres undefined) [Metaproterenol], the EC50 in experiment [2] is 21.6 nM. For the same compound, the “cAMP EC50” value in experiment [3] was 5.17 ± 2.3 nM.

On to `CNCCc1cnc[nH]1` [N-alpha-methylhistamine], for which the EC50 in experiment [1] turned out to be 234 nM; in experiment [2], 248 nM. Further, the “cAMP EC50” value in experiment [3] turned out to be 180 ± 26 nM.

`NC[C@H](O)c1ccc(O)c(O)c1` [Norepinephrine]: the values for the EC50 in experiment [1] and in experiment [2] were 6.13 nM and 1.46 nM, respectively. The “cAMP EC50” value in experiment [3] was 0.42 ± 0.14 nM.

For the compound `COc1ccc(CC(C)(C)NC[C@H](O)c2cc(O)cc3c2OCC(=O)N3)cc1` [Olodaterol], the EC50 in experiment [1] was determined as 0.127 nM; in experiment [2] it was 2.88 nM.

`CCC(NC(C)C)C(O)c1ccc(O)c2[nH]c(=O)ccc12` (centres undefined) [Procaterol] returned an EC50 in experiment [1] of 0.703 nM.

Consider `CC(NCCc1ccc(O)cc1)C(O)c1ccc(O)cc1` (centres undefined) [Ritodrine], for which the EC50 in experiment [1] was 294 nM; in experiment [2], 295 nM. In addition, the “cAMP EC50” value in experiment [3] is 624 ± 160 nM.

Regarding `CC(C)(C)NCC(O)c1ccc(O)c(CO)c1` (centres undefined) [Salbutamol], the EC50 was found to be 64.6 nM in experiment [1] and 98.5 nM in experiment [2]. The “cAMP EC50” value in experiment [3] was found to be 10.6 ± 9.1 nM.

As for `CC(C)(C)NCC(O)c1cc(O)cc(O)c1` (centres undefined) [Terbutaline], the EC50 in experiment [1] was 230 nM; in experiment [2], 216 nM. For the same compound, the “cAMP EC50” value in experiment [3] worked out at 349 ± 260 nM.

In experiment [2], `COc1cc(C[C@@H]2NCCc3cc(O)c(O)cc32)cc(OC)c1OC` [Tretoquinol] registered an EC50 of 0.237 nM.

Regarding `CC(C)(C)NCC(O)c1ccccc1Cl` (centres undefined) [Tulobuterol], the EC50 in experiment [1] worked out at 215 nM. Moreover, the “cAMP EC50” value in experiment [3] was found to be 32.1 ± 20 nM.

For `OCc1cc([C@@H](O)CNCCCCCCOCCOCc2c(Cl)cccc2Cl)ccc1O` [Vilanterol], the EC50 worked out at 5.86 nM in experiment [1] and 5.65 nM in experiment [2]. The “cAMP EC50” value in experiment [3] was under 0.01 nM.

`CC(C)(Cc1ccccc1)NCC(O)c1ccc(O)c(NS(C)(=O)=O)c1` (centres undefined) [Zinterol]: the values for the EC50 in experiment [1] and in experiment [2] were 0.567 nM and 3.48 nM, respectively. Further, the “cAMP EC50” value in experiment [3] is under 0.01 nM.
